Columns and labels:
[1] = test system: Escherichia coli ATCC® 8739™; experiment: Enumeration of colonies using the method of the invention; format: cell-based; settings: E. coli; TSA agar; 35° C.; microcolony count
[2] = test system: K. pneumoniae ATCC® 13883™; experiment: Enumeration of bacteria implicated in uncomplicated and complicated UTI; format: cell-based, Klebsiella pneumoniae; settings: black MCE membrane; for Time detection (minimal timing necessary to enumerate microcolonies): 37° C.
E. coli ATCC®8739™ = experiment: as above; format: cell-based, Escherichia coli; settings: black MCE membrane; for Time detection (minimal timing necessary to enumerate microcolonies): 37° C.
[3] = test system: P. mirabilis ATCC® 29906™; experiment: as above; format: cell-based, Proteus mirabilis; settings: black MCE membrane
S. aureus ATCC® 6538™ = experiment: as above; format: cell-based, Staphylococcus aureus; settings: black MCE membrane
E. faecalis ATCC® 19433™ = experiment: as above; format: cell-based, Enterococcus faecalis; settings: black MCE membrane
[4] = test system: Candida albicans ATCC® 10231™; experiment: Enumeration of colonies using the method of the invention; format: cell-based; settings: C. albicans; SDA agar; 35° C.; microcolony count
[5] = test system: Aspergillus brasiliensis ATCC® 16404™; experiment: as above; format: cell-based; settings: A. brasiliensis; SDA agar; 35° C.; microcolony count

SMILES	Counting Scan at 17 h on PVDF membrane with fluorochrome [1]	Counting Scan at 17 h on MCE membrane with fluorochrome [1]	Counting Scan at 17 h on MCE membrane with fluorochrome [4]	Counting Scan at 17 h on PVDF membrane with fluorochrome [4]	Counting Scan at 17 h on PVDF membrane with fluorochrome [5]	Counting Scan at 17 h on MCE membrane with fluorochrome [5]	other results
Cc1ccc2n1[B-](F)(F)[N+]1=C(CCCCCCCCCCCC(=O)O)C=CC1=C2 [BODIPY 500/510, 12-(2,2-difluoro-12-methyl-1-aza-3-azonia-2-boranuidatricyclo[7.3.0.03,7]dodeca-3,5,7,9,11-pentaen-4-yl)dodecanoic acid]	112						
N=C(N)c1ccc(-c2cc3ccc(C(=N)N)cc3[nH]2)cc1 [DAPI, 4′,6-diamidino-2-phenylindole]							percentage of detected objects compared to standard procedure timing (24 h at 37° C.) ([2]; K. pneumonia, Columbia Blood): (100%); percentage of detected objects compared to standard procedure timing (24 h at 37° C.) ([2]; K. pneumonia, TSA): (100%); Time detection (minimal timing necessary to enumerate microcolonies) ([2]; K. pneumonia, Columbia Blood): 10 h; Time detection (minimal timing necessary to enumerate microcolonies) ([2]; K. pneumonia, TSA): 10 h; percentage of detected objects compared to standard procedure timing (24 h at 37° C.) ([2]; K. pneumoniae, MacConkey): (100%); Time detection (minimal timing necessary to enumerate microcolonies) ([2]; K. pneumoniae, MacConkey): 11 h; percentage of detected objects compared to standard procedure timing (24 h at 37° C.) (E. coli ATCC®8739™; Columbia Blood): (100%); percentage of detected objects compared to standard procedure timing (24 h at 37° C.) (E. coli ATCC®8739™; MacConkey): (98%); Time detection (minimal timing necessary to enumerate microcolonies) (E. coli ATCC®8739™; MacConkey): 10 h; percentage of detected objects compared to standard procedure timing (24 h at 37° C.) (E. coli ATCC®8739™; TSA): (100%); Time detection (minimal timing necessary to enumerate microcolonies) (E. coli ATCC®8739™; TSA): 6 h; percentage of detected objects compared to standard procedure timing (24 h at 37° C.) ([3]; Columbia Blood): (94%); percentage of detected objects compared to standard procedure timing (24 h at 37° C.) ([3]; TSA): (98%); Time detection (minimal timing necessary to enumerate microcolonies) ([3]; TSA, 37° C.): 10 h; percentage of detected objects compared to standard procedure timing (24 h at 37° C.) (S. aureus ATCC® 6538™; Columbia Blood): (100%); percentage of detected objects compared to standard procedure timing (24 h at 37° C.) (S. aureus ATCC® 6538™; TSA): (100%); Time detection (minimal timing necessary to enumerate microcolonies) (S. aureus ATCC® 6538™; TSA, 37° C.): 8 h; percentage of detected objects compared to standard procedure timing (24 h at 37° C.) (E. faecalis ATCC® 19433™; Columbia Blood): (100%); percentage of detected objects compared to standard procedure timing (24 h at 37° C.) (E. faecalis ATCC® 19433™; TSA): (100%); Time detection (minimal timing necessary to enumerate microcolonies) (E. faecalis ATCC® 19433™; TSA, 37° C.): 7 h
CCC(=O)c1ccc2cc(N(C)C)ccc2c1 [Prodan, 6-propionyl-2-dimethyaminonaphthalene]	126	118	11	17	6		
CN(C)CCNc1ccc(O)c2c1C(=O)c1c(O)ccc(NCCN(C)C)c1C2=O [DRAQ5, 1,5-bis (2-(di-methylamino)ethylamino)-4,8-dihydroxyanthracene-9,10-dione]	162	185					
Cc1c(CC(=O)ON2C(=O)CCC2=O)c(=O)oc2cc(N)c(S(=O)(=O)O)cc12 [AF350-NHS Ester, 7-amino-3-[2-(2,5-dioxopyrrolidin-1-yl)oxy-2-oxoethyl]-4-methyl-2-oxochromene-6-sulfonic acid]	107	109	9	20	19	25	
CC[N+]1=C(C=CC=CC=C2N(CCCCCC(=O)O)c3ccc(S(=O)(=O)O)cc3C2(C)C)C(C)(C)c2cc(S(=O)(=O)[O-])ccc21 [Sulfo-Cy5-Acid]	120	114	13	13	34	25	

From US20250002967A1, “METHODS FOR DETECTING MICROORGANISMS BY ADDING A FLUORESCENT DYE DIRECTLY TO THE SOLID GROWTH MEDIUM” (DIAMIDEX, priority 2021, published 2025)
